# Source: US20200188473A1, “COMBINATION THERAPY FOR CANCER” (BETH ISRAEL DEACONESS MEDICAL CENTER, INC., priority 2017, published 2020)
# How the values were obtained:
# ACE2 = test: transcriptome analysis of untreated vs resistant xenograft tumors; format: in vivo, mice; settings: for ACE2 down modulation in resistant tumors vs control untreated tumors: 786-0 model
# Procedure: Transcriptome analysis of the untreated tumors vs the resistant tumors was performed. ACE2 was the second most down-modulated gene common to the sorafenib and sunitinib treated 786-0 model with a 2.4 fold down modulation in the resistant tumors vs the control untreated tumors. Moreover, ACE2 was in the top 3 most down-modulated genes in the A498 tumor model with a 5-fold decrease i n resistant tumors vs untreated tumors (P<0.001).
# [1] = tested on: human VHL deficient RCC cell lines (A498); settings: A498 xenograft; treatment begun at 12 mm diameter; resistance = time to grow 2 mm beyond pretreatment size; sunitinib 30 mg/kg daily by gavage
# Procedure: A murine xenograft system to study resistance antiangiogenic agents was developed. To assess the effects of antiangiogenic therapy on the growth of human RCC xenografts, established human VHL deficient RCC cell lines (A498) were implanted subcutaneously (1×10^7 cells) into the flanks of 6-8 week old nude/beige mice. The tumors were measured in two axes and the largest axis was followed. Treatment with sunitinib or sorafenib was begun when the tumors reached a diameter of 12 mm (roughly 3 weeks after injection) and resistance to this treatment was monitored. Resistance was defined as the time required for a tumor to grow 2 mm beyond its pretreatment size. […] This model was used to study the mechanisms by which tumors escape angiogenesis inhibition.
# The effect of sunitinib and Ang(1-7) on the growth of human RCC xenografts was tested. 1×10^7 cells were injected into the flanks of nude-beige mice. Established human VHL deficient RCC cell lines (A498) were implanted subcutaneously (1×10^7 cells) into the flanks of 6-8 week old nude/beige mice. The tumors were measured in two axes and the largest axis was followed. Treatment with sunitinib (30 mg/kg daily by gavage) and Ang(1-7) 1 mg/kg Ang(1-7) IP three times per week was begun when the tumors reached a diameter of 12 mm (roughly 3 weeks after injection). […]
SMILES,ACE2 down modulation in resistant tumors vs control untreated tumors (ACE2),"ACE2 expression (ACE2; murine xenograft system, sunitinib treatment)",period of relative stabilization [1]
CNC(=O)c1cc(Oc2ccc(NC(=O)Nc3ccc(Cl)c(C(F)(F)F)c3)cc2)ccn1 [sorafenib],2.4 fold,,
CCN(CC)CCNC(=O)c1c(C)[nH]c(/C=C2\C(=O)Nc3ccc(F)cc32)c1C [sunitinib],2.4 fold,loss of ACE2 expression,10 to 12 days
